Structures can show the parent of a compound that is named as a salt.
Assays:
[1] = biological target: T1, S1P1 (Homo sapiens, UniProt P21453); assay: S1P1 Binding Assay (33P-S1P competition, CHO membranes); settings: membranes of CHO cells expressing human S1P1, 33P-S1P ligand; read-out: S1P1 B IC50
T1 construct: expressed in transfected cells; host or cells: CHO cells
Description: Membranes were prepared from CHO cells expressing human S1P1. Cells were dissociated in buffer containing 20 mM HEPES, pH 7.5, 50 mM NaCl, 2 mM EDTA and Protease Inhibitor cocktail (Roche), and disrupted on ice using the Polytron homogenizer. The homogenate was centrifuged at 20,000 rpm (48,000 g) and the supernatant was discarded. The membrane pellets were resuspended in buffer containing 50 mM HEPES, pH 7.5, 100 mM NaCl, 1 mM MgCl2, 2 mM EDTA and stored in aliquots at −80° C. after protein concentration determination.
Membranes (2 μg/well) and 0.03 nM final concentration of ^33P-S1P ligand (1 mCi/ml, American Radiolabeled Chemicals) were added to the compound plates. Binding was performed for 60 min at room temperature, terminated by collecting the membranes onto GF/B filter plates, and radioactivity was measured by TOPCOUNT®. The competition data of the test compounds over a range of concentrations was plotted as percentage inhibition of radioligand specific binding. The IC50 is defined as the concentration of competing ligand needed to reduce specific binding by 50%.
Compounds of the present invention and Comparative Compound A were tested in the S1P1 binding assay described hereinabove and the results rounded to two digits, shown in Table A were obtained. In some instances, the value is an average of multiple experiments where N is the number of experiments conducted that provided satisfactory dose response curves. When more than one batch of an example was tested, the value presented is from the batch which allowed a comparison of GTPγS S1P1 and GTPγS S1P3 in Method A (Data shown in Table B). Data was not averaged across different batches of an example compound.

[2] = biological target: T1, S1P1; assay: Method A: Receptor [35S] GTPγS Binding Assay, S1P1; assay type: biochemical; settings: for EC50: Method A, S1P1/CHO cell membranes; for GTPγS S1P3/S1P1 (Method A): ratio of S1P3 EC50 to S1P1 EC50, Method A
Description: (§1) Method A: Receptor [35S] GTPγS Binding Assays
(§2) Compounds were loaded in a 384 FALCON® v-bottom plate (0.5 μl/well in a 3-fold dilution). Membranes prepared from S1P1/CHO cells or EDG3-Gal5-bla HEK293T cells were added to the compound plate (40 μl/well, final protein 3 μg/well) with MULTIDROP®. [^35S]GTP (1250 Ci/mmol, Perkin Elmer) was diluted in assay buffer: 20 mM HEPES, pH7.5, 10 mM MgCl2, 150 mM NaCl, 1 mM EGTA, 1 mM DTT, 10 μM GDP, 0.1% fatty acid free BSA, and 10 μg/ml Saponin to 0.4 nM. 40 μl of the [^35S] GTP solution was added to the compound plate with a final concentration of 0.2 nM. The reaction was kept at room temperature for 45 min. At the end of incubation, all the mixtures in the compound plate were transferred to a 384 well FB filter plates via GPCR robot system. The filter plate was washed with water 4 times by using the modified manifold Embla plate washer and dried at 60° C. for 45 min. 30 μA of MicroScint 20 scintillation fluid was added to each well for counting at Packard TOPCOUNT®. EC50 is defined as the agonist concentration that corresponds to 50% of the Ymax (maximal response) obtained for each individual compound tested.
(§3) Compounds of the present invention and Comparative Compound A were tested in the Receptor [^35S] GTPγS Binding Assays (Method A) and Receptor [^35S] In some instances, the value is an average of multiple experiments where N is the number of experiments conducted that provided satisfactory dose response curves. When more than one batch of an example was tested, the value presented is from a batch which allowed a comparison of GTPγS S1P1 and GTPγS S1P3 in which the most number of experiments were performed. Preferably, the same batch was examined in Method A and Method B. Data was not averaged across different batches of an example compound.

[3] = biological target: T1, S1P1; assay: Method B: Receptor [35S] GTPγS SPA Binding Assay, S1P1; assay type: biochemical; settings: for EC50: Method B (SPA), S1P1 transfected CHO cell membranes; for GTPγS S1P3/S1P1 (Method B): ratio of S1P3 EC50 to S1P1 EC50, Method B
Description: (§4) Method B: Receptor [^35S] GTPγS SPA Binding Assays
(§5) Membranes prepared from S1P1 or S1P3 transfected CHO cells (2 μg protein) were incubated in 96-well white plates (CORNING® 3693) with test compounds diluted in DMSO, in 50 μl of reaction mixture containing 7.5 μA WGA-PVT beads (20 mg/ml), and 5 μM GDP, 20 mM HEPES pH 7.4, 100 mM NaCl, 1 mM EDTA, 5 mM MgCl2, 10 μg/ml saponin, 0.1% BSA, and 1 μM leupeptin. The assay was initiated with the addition of […] of 0.2 nM [^35S]-GTPγS (1250 Ci/mmol; NEN) in assay buffer. After 90 min incubation at room temperature, spin the plate at 1000 rpm for 5 min. The bound radionuclides were measured at TOPCOUNT®, expressed as % response relative to S1P (1 μM) activation. Data was analyzed using the four parameter logistic equation in Excel. The four parameters in the equation, Y=A+((B−A)/(1+((EC50/X)^D))), are described as following: A is the Y value (agonist activity) at the bottom plateau; B is the Y value at the top plateau; EC50 is the X value (agonist concentration) when the response is halfway between bottom and top; D is Hill coefficient. Curves were not generated for compounds having Ymax values were below 50%.
as §3

[4] = biological target: T2, S1P3 (Homo sapiens, UniProt Q99500); assay: Method A: Receptor [35S] GTPγS Binding Assay, S1P3; assay type: biochemical; parameters: expressed in transfected cells; settings: EDG3-Gal5-bla HEK293T cell membranes
Description: as §1, §2, §3

[5] = system: circulating lymphocytes; assay: Blood Lymphocyte Reduction Assay (BLR) in rats; assay type: in vivo, Lewis rats; settings: oral
Description: (§6) Blood Lymphocyte Reduction Assay (BLR) in Rodents
(§7) Lewis rats or BALB/c mice were dosed orally with test article (as a solution or suspension in the vehicle) or vehicle alone (polyethylene glycol 300, “PEG300”). Blood was drawn at 4 hr and 24 h by retro-orbital bleeding. Blood lymphocyte counts were determined on an ADVIA 120 Hematology Analyzer (Siemens Healthcare Diagnostics). The results were measured as a reduction in the percentage of circulating lymphocytes as compared to the vehicle treated group at the 4 hr and 24 hr measurement. The results represent the average results of all animals within each treatment group (n=3-4).
(§8) Compounds of the present invention were tested in the Blood Lymphocyte Reduction assay (BLR) described hereinabove and the results are shown in Table D for rats and Table E for mice.

[6] = system: circulating lymphocytes; assay: Blood Lymphocyte Reduction Assay (BLR) in mice; assay type: in vivo, BALB/c mice; settings: oral
Description: as §6, §7, §8

[7] = system: Lewis rats; assay: Rat Adjuvant Induced Arthritis Assay (AA); assay type: in vivo; settings: for Paw Swelling (mL) on Day 21, Mean: vehicle mean 1.58
Description: Rat Adjuvant Induced Arthritis Assay (AA)
Male Lewis rats (150-175 g; Harlan, n=8 treatment group) were immunized at the base of the tail with 100 μl of 10 mg/ml freshly ground Mycobacterium butyricum (Difco Laboratories) in incomplete Freund's adjuvant (sigma). Animals were dosed once daily with the test article (as a solution or suspension in the vehicle) or vehicle alone (polyethylene glycol 300, “PEG300”) starting from the day of immunization. The volumes of their hind paws were measured in a water displacement plethysmometer (Ugo Basile, Italy). The baseline paw measurements were taken before onset of the disease (between day 7 to day 10). The paw measurements were then taken three times a week until the end of the study on day 20 to 21. All procedures involving animals were reviewed and approved by the Institutional Animal Care Use Committee.
Compounds of the present invention were tested in the Rat Adjuvant Induced Arthritis assay described hereinabove and the results are shown in Table F and Table G.

[8] = biological target: T2, S1P3; assay: Method B: Receptor [35S] GTPγS SPA Binding Assay, S1P3; assay type: biochemical; parameters: expressed in transfected cells; host or cells: CHO cells; settings: S1P3 transfected CHO cell membranes
Description: as §4, §5, §3

T2 sequence (Q99500 whole entry): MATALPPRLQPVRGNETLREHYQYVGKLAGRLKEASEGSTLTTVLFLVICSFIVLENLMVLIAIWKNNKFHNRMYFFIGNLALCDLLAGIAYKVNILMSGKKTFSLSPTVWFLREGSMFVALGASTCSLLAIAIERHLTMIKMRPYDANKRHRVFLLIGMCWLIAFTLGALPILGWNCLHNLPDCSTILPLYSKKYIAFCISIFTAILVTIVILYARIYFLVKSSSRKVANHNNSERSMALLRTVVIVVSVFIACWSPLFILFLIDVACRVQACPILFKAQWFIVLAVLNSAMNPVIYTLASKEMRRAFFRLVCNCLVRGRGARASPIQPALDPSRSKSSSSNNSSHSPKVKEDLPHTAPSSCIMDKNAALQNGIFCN
T1 sequence (P21453 whole entry): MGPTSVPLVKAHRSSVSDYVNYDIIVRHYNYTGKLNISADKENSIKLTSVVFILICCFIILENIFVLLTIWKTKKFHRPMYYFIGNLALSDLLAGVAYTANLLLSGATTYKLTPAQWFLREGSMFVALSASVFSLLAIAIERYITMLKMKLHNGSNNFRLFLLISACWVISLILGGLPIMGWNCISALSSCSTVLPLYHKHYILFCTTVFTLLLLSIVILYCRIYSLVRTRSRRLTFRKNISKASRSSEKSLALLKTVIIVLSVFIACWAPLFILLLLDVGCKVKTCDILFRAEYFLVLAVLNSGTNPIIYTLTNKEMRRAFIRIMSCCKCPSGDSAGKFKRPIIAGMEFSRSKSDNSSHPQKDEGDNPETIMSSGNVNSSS

Row | SMILES | IC50 [1] [nM] | EC50 [2] [nM] | GTPγS S1P3/S1P1 (Method A) [2] | EC50 [3] [nM] | EC50 [4] [nM] | GTPγS S1P3/S1P1 (Method B) [3] | EC50 [8] [nM] | further results
1 | Cc1c(-c2nc(-c3ccc(CN4CC(C(=O)O)C4)cc3)no2)cnn1-c1ccccc1 [Example 5, 1-(4-(5-(5-methyl-1-phenyl-1H-pyrazol-4-yl)-1,2,4-oxadiazol-3-yl)benzyl)azetidine-3-carboxylic acid] | 30 | 260 | 50 | 17 | 13000 | – | – | –
2 | O=C(O)C1CN(Cc2ccc(-c3noc(-c4cnn(-c5ccccc5)c4C(F)(F)F)n3)cc2)C1 [Example 2, 1-(4-(5-(1-Phenyl-5-(trifluoromethyl)-1H-pyrazol-4-yl)-1,2,4-oxadiazol-3-yl)benzyl)azetidine-3-carboxylic acid] | 0.3 | 1.9 | – | 0.17 | – | 12,000 | 2100 | % reduction in lymphocytes at 4 hr. ([5]; 0.04 mg/kg): 64%; % reduction in lymphocytes at 24 hr. ([5]; 0.04 mg/kg): 8%; % reduction in lymphocytes at 4 hr. ([5]; 0.2 mg/kg): 76%; % reduction in lymphocytes at 24 hr. ([5]; 0.2 mg/kg): 55%; % reduction in lymphocytes at 4 hr. ([5]; 1.0 mg/kg): 76%; % reduction in lymphocytes at 24 hr. ([5]; 1.0 mg/kg): 79%; % reduction in lymphocytes at 4 hr. ([6]; 0.04 mg/kg): 68%; % reduction in lymphocytes at 24 hr. ([6]; 0.04 mg/kg): 5%; % reduction in lymphocytes at 4 hr. ([6]; 0.2 mg/kg): 76%; % reduction in lymphocytes at 24 hr. ([6]; 0.2 mg/kg): 64%; % reduction in lymphocytes at 4 hr. ([6]; 1.0 mg/kg): 80%; % reduction in lymphocytes at 24 hr. ([6]; 1.0 mg/kg): 82%; % reduction in lymphocytes at 4 hr. ([6]; 3.0 mg/kg): 73%; % reduction in lymphocytes at 24 hr. ([6]; 3.0 mg/kg): 89%; Paw Swelling (mL) on Day 21, Mean ([7]; 0.2 mg/kg once daily): 02.12 mL; Paw Swelling (mL) on Day 21, Mean ([7]; 1.0 mg/kg once daily): 0.91 mL; Paw Swelling (mL) on Day 21, Mean ([7]; 3.0 mg/kg once daily): 0.19 mL; Paw Swelling (mL) on Day 21, Mean ([7]; 10.0 mg/kg once daily): 0.10 mL; disease progression as measured by paw swelling ([7]; Lewis rat, prophylactic oral dosing): inhibit disease progression
3 | CCCc1c(-c2nc(-c3ccc(CN4CC(C(=O)O)C4)cc3)no2)cnn1-c1ccccn1 [Example 6, 1-(4-(5-(5-propyl-1-(pyridin-2-yl)-1H-pyrazol-4-yl)-1,2,4-oxadiazol-3-yl)benzyl)azetidine-3-carboxylic acid] | 0.12 | 4.2 | 690 | – | 2900 | – | 1300 | –
4 | O=C(O)C1CN(Cc2ccc(-c3noc(-c4cnn(-c5ccccc5)c4-c4cccnc4)n3)cc2)C1 [Example 15, 1-(4-(5-(1-Phenyl-5-(pyridin-3-yl)-1H-pyrazol-4-yl)-1,2,4-oxadiazol-3-yl)benzyl)azetidine-3-carboxylic acid, 2,2,2-trifluoroacetic acid salt] | 5.4 | 52 | 69 | 2.2 | 3600 | 1,900 | 4100 | –

Source: US8389509B2, “Substituted pyrazole compounds” (Bristol-Myers Squibb Company, priority 2009, dated 2013)
